Consider 25 compounds from patent US7772252B2, “Heterocyclic substituted carbonyl derivatives and their use as dopamine D3 receptor ligands” (Aventis Pharmaceuticals Inc., priority 2001, dated 2010).

By Ki is commonly meant the dissociation constant of the complex between target and ligand, obtained from inhibition or displacement.

Structures are written as SMILES.

T1 sequence (P35462 whole entry): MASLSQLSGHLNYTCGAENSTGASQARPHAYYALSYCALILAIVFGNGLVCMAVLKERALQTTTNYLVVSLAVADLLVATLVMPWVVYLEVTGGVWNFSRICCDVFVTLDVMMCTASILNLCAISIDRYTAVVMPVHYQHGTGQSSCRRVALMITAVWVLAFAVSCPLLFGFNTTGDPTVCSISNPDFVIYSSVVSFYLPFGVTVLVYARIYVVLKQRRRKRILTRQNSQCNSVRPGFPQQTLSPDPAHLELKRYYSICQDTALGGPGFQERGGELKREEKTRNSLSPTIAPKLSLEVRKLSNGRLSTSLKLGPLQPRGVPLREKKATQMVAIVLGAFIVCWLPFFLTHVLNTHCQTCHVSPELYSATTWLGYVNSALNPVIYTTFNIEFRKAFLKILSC

This test concerns the target T1, cloned human dopamine D3 receptors (Homo sapiens, UniProt P35462).
T1 construct: expressed in transfected cells; membrane homogenate
As to the kind of experiment: [N-Methyl-3H]Spiroperidol binding to cloned human dopamine D3 receptors. To be noted: read-out: D3 Ki. An excerpt:
[N-Methyl-^3H]Spiroperidol Binding to Cloned Human Dopamine D3 Receptors
This assay measures the in vitro activity of compounds on cloned human dopamine (D3) receptors and predicts the direct dopamine-blocking properties of putative neuropsychiatric agents at human dopamine D3 receptors.
The D3 gene was isolated from a human striatal cDNA library (Stratagene). The gene was sequenced and sub-cloned into the expression vector RC/RSV (Invitrogen). CHO (Chinese Hamster Ovary) cells were stably transfected with 10 μg of the D3/RSV plasmid using the DOTAP method from Boehringer Mannheim and 72 clones that were G418 resistant were isolated. Using mRNA and binding displacement data a single high expressing clone was identified. This clone was then grown in large batches for the purpose of developing a 96 well format assay.
• 1. One plate (10 cm) with approximately 2-3 million D3 cells per plate is incubated with 1 ml of Trypsin-EDTA at room temperature for ˜2 min or until cells have lifted off plates. Four ml of Ham's F12+10% Fetal Bovine Serum+1% Penicillin/Streptomycin+G418 (400 μg/ml) medium are added to resuspend cells and 1 ml of this is added to each large plate (15 cm) containing 19 ml of the same medium as mentioned above. • 2. The 5 large plates are incubated at 37° C.+5% CO2 for ˜3 days or until the cells are confluent. • 3. After these plates are confluent, they are split into 10 large plates. Medium is aspirated off, 2 ml of Trypsin-EDTA are added to each plate and plates are incubated at RT for 2 min or until cells have lifted off the plate. Eight ml of the F12 medium (same medium as #1 above) are added to each plate (10 ml total) to resuspend the cells and 5 ml are transferred to the 2 new plates containing 15 ml of the F12 media. • 4. The 10 large plates are incubated at 37° C.+5% CO2 for ˜2 days or until the cells are confluent. • 5. The 10 large plates are split into 60 large plates (using Trypsin-EDTA as #3 except 4 ml of F12 medium are added to resuspend cells and 1 ml is aliquoted to 6 new plates containing 19 ml of F12 medium each). • 6. Plates are incubated at 37° C.+5% CO2 for ˜3 days or until cell are confluent. • 7. The 60 large plates are then split into 60 roller bottles (100-150 million cells/bottle). Medium is aspirated off, 2 ml of Trypsin-EDTA are added to each plate and incubated at RT for ˜2 minutes or until cells have lifted off plates. Eight ml of F12 medium are added to each plate to resuspend cells and the entire 10 ml are added to 1 roller bottle containing 90 ml of the F12 medium. • 8. The 60 roller bottles are immediately placed on their sides and transferred to the roller bottle incubator. They are incubated at 37° C.+5% CO2 for ˜3-5 days. Cells are spun at 30-40% motor speed in the Form a incubator. • 9. Medium is poured off and cells are washed 2× in PBS. • 10. Cells are then scraped off in 20 ml of PBS and the bottles are rinsed again with 5 ml of PBS to remove any remaining cells. Cells are stored on ice before membrane preparation. • 11. The yield for 60 D3 roller bottles has varied from ˜260-500 mg. • Note: All tissue culture reagents are from Gibco-BRL. C. Membrane Preparation
The cells are harvested into 250 ml centrifuge tubes with 100 volumes of cold phosphate buffered saline (PBS) and spun down (1200×G for 10 min at 4° C.). The medium is removed and 100 ml PBS are added to each centrifuge tube, cells are resuspened and spun down again. The PBS is removed and the final pellet is homogenized in an appropriate volume of 10% DMSO with a polytron on ice at a medium setting.
A 200 μl sample membrane homogenate is added to 200 μl of 1% SDS, vortexed and allowed to stand for 5 min. Aliquots (25, 50 and 100 μl) of this mixture are assayed in duplicate following the standard Bio-Rad DC protein assay protocol (kit catalog number 500-0112) and using reagent S. Absorbance readings are made at 750 nm (note: the most accurate protein OD readings are between 0.1-0.5 units). […]
Take `O=C(C1CC1CN1CCC(c2noc3ccsc23)CC1)N1CC=CC1` (racemic) [compound 829594]: the Ki stood at 364 nM.
To `O=C(C1CC1CN1CCC(c2noc3ccsc23)CC1)N1CCC(Oc2ccc(F)cc2)CC1` (racemic) [compound 829595] belongs 201 nM; to `CN1CCCN(C(=O)C2CC2CN2CCC(c3noc4ccsc34)CC2)CC1` (racemic) [compound 829597], 226 nM.
For the compound `CC1CCC(NC(=O)C2CCC2CN2CCC(c3noc4ccsc34)CC2)CC1` (racemic) [compound 829830], the Ki turned out to be 65.3 nM.
As to `C[C@H]1CC[C@H](NC(=O)[C@@H]2CC[C@H]2CN2CCN(c3noc4ccsc34)CC2)CC1` (racemic) [compound 829996], the Ki turned out to be 277 nM.
With `C[C@H]1CC[C@H](NC(=O)[C@@H]2CC[C@H]2CN2CCCN(c3csc4cc(F)ccc34)CC2)CC1` (racemic) [compound 829997], the inhibition constant (Ki) was 10.4 nM.
In the case of `C[C@H]1CC[C@H](NC(=O)[C@@H]2CC[C@H]2CN2CCCN(c3noc4ccsc34)CC2)CC1` (racemic) [compound 830000], the Ki is 286 nM.
To `CCC1CCC(NC(=O)C2CC2CN2CCN(c3nn(-c4ccc(C(F)(F)F)cc4)c4ccccc34)CC2)CC1` (racemic) [compound 830046] belongs 16.5 nM; to `CCC1CCC(NC(=O)C2CC2CN2CCC(c3cc4cc(OC)cc(Br)c4o3)CC2)CC1` (racemic) [compound 830112], 54 nM.
The value for `CC1CCC(NC(=O)C2CC2CN2CCN(c3nn(-c4ccccc4F)c4ccccc34)CC2)CC1` (racemic) [compound 830114] was 5.42 nM; that for `CC1CCC(NC(=O)C2CC2CN2CCN(c3n[nH]c4ccccc34)CC2)CC1` (racemic) [compound 830116] was 13.1 nM; that for `CC1CCC(NC(=O)C2CC2CN2CCN(c3onc4c3CCc3ccccc3-4)CC2)CC1` (racemic) [compound 830121] was 47.1 nM.
The value for `CC1CCC(NC(=O)C2CC2CN2CCCN(c3onc4c3CCc3ccccc3-4)CC2)CC1` (racemic) [compound 830123] was 73.8 nM; that for `CC1CCC(NC(=O)C2CC2CN2CCN(c3n[nH]c4cc(Cl)ccc34)CC2)CC1` (racemic) [compound 830124] was 1.84 nM; that for `CC1CCC(NC(=O)C2CC2CN2CCCN(c3noc4ccsc34)CC2)CC1` (racemic) [compound 830126] was 23.8 nM.
On to `CC1CCC(NC(=O)C2CC2CN2CCN(c3noc4ccsc34)CC2)CC1` (racemic) [compound 830127], for which the Ki came out at 1.66 nM.
Regarding `CCOC(=O)c1cc2ccc(N3CCCN(CC4CC4C(=O)NC4CCC(CC)CC4)CC3)cc2s1` (racemic) [compound 830128], the inhibition constant (Ki) is 69.7 nM.
To `CCC1CCC(NC(=O)C2CC2CN2CCN(c3nn(-c4ccccc4)c4cc(F)ccc34)CC2)CC1` (racemic) [compound 830129] belongs 4.16 nM; to `CCC1CCC(NC(=O)C2CC2CN2CCCN(c3onc4c3CCc3ccc(OC)cc3-4)CC2)CC1` (racemic) [compound 830131], 34.1 nM.
The value for `CCC1CCC(NC(=O)C2CC2CN2CCC(c3ccccc3Cc3ccccc3)CC2)CC1` (racemic) [compound 830132] was 9.26 nM.
The value for `COc1c(F)ccc2c(C3CCN(CC4CC4C(=O)NC4CCC(C)CC4)CC3)noc12` (racemic) [compound 830134] was 0.602 nM; that for `COc1ccc2[nH]nc(N3CCN(CC4CC4C(=O)NC4CCC(C)CC4)CC3)c2c1` (racemic) [compound 830439] was 17.6 nM.
On to `O=C(NCCc1cccs1)C1CC1CN1CCC(c2noc3ccsc23)CC1` (racemic) [compound 831385], for which the inhibitory constant (Ki) came out at 22.7 nM.
To `O=C(C1CC1CN1CCC(c2noc3ccsc23)CC1)N1CCN(Cc2ccc(Cl)c(Cl)c2)CC1` (racemic) [compound 831390] belongs 0.861 nM; to `O=C(Cc1ccccc1)NNC(=O)C1CC1CN1CCC(c2noc3ccsc23)CC1` (racemic) [compound 831452], 115 nM.
